Measurements reported in PubChem BioAssay AID2060897 (Molecular Pharmacology Branch, DTP, NCI, 2025).

Tested on: 966289-007-R4-J1-PDC complex spheroid viability
Experiment: Anticancer human tumor 966289-007-R4-J1-PDC patient-derived pancreatic adenocarcinoma cell line growth inhibition [RAS]
Details: for IC50: curve of first compound; for viability, T/C: stronger effect = lower value
Outline: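 Multi-cell-type spheroids: tumor cells plus HUVEC endothelial cells and mesenchymal stem cells. RAS-pathway inhibitors were combined with targeted agents, each dosed in half-log steps down from clinical Cmax, or from 10 microM when Cmax was unknown.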
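Also: spheroids exposed to agents for one week before readout.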
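For viability, T/C in this document: percent viability relative to DMSO vehicle control wells as 100%.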

CCc1c2c(nc3ccc(O)cc13)-c1cc3c(c(=O)n1C2)COC(=O)[C@]3(O)CC + CCn1c(-c2cc(N3CCN(C)CC3)cnc2C(C)OC)c2c3cc(ccc31)-c1csc(n1)CC(NC(=O)C1CC1C)C(=O)N1CCCC(N1)C(=O)OCC(C)(C)C2
IC50 (second compound 0.000949 µM): 1.67 nM
IC50 (second compound 0.003 µM): 1.57 nM
IC50 (second compound 0.00949 µM): 1.39 nM
IC50 (second compound 0.03 µM): 1.14 nM
IC50 (second compound 0.0949 µM): 1.15 nM
IC50 (second compound 0.3 µM): 1.21 nM
viability, T/C (second compound 0.000949 µM, first compound 0.000949 µM): 95.5%
viability, T/C (second compound 0.000949 µM, first compound 0.003 µM): 2.7%
viability, T/C (second compound 0.000949 µM, first compound 0.00949 µM): 0.64%
viability, T/C (second compound 0.000949 µM, first compound 0.03 µM): 0.62%
viability, T/C (second compound 0.000949 µM, first compound 0.0949 µM): 0.49%
viability, T/C (second compound 0.000949 µM, first compound 0.3 µM): 0.57%
viability, T/C (second compound 0.003 µM, first compound 0.000949 µM): 86.2%
viability, T/C (second compound 0.003 µM, first compound 0.003 µM): 3.2%
viability, T/C (second compound 0.003 µM, first compound 0.00949 µM): 0.55%
viability, T/C (second compound 0.003 µM, first compound 0.03 µM): 0.6%
viability, T/C (second compound 0.003 µM, first compound 0.0949 µM): 1.32%
viability, T/C (second compound 0.003 µM, first compound 0.3 µM): 0.57%
viability, T/C (second compound 0.00949 µM, first compound 0.000949 µM): 71.3%
viability, T/C (second compound 0.00949 µM, first compound 0.003 µM): 6.94%
viability, T/C (second compound 0.00949 µM, first compound 0.00949 µM): 1.03%
viability, T/C (second compound 0.00949 µM, first compound 0.03 µM): 0.54%
viability, T/C (second compound 0.00949 µM, first compound 0.0949 µM): 0.73%
viability, T/C (second compound 0.00949 µM, first compound 0.3 µM): 0.75%
viability, T/C (second compound 0.03 µM, first compound 0.000949 µM): 58.1%
viability, T/C (second compound 0.03 µM, first compound 0.003 µM): 7.49%
viability, T/C (second compound 0.03 µM, first compound 0.00949 µM): 0.82%
viability, T/C (second compound 0.03 µM, first compound 0.03 µM): 1.66%
viability, T/C (second compound 0.03 µM, first compound 0.0949 µM): 0.53%
viability, T/C (second compound 0.03 µM, first compound 0.3 µM): 0.43%
viability, T/C (second compound 0.0949 µM, first compound 0.000949 µM): 58.9%
viability, T/C (second compound 0.0949 µM, first compound 0.003 µM): 4.98%
viability, T/C (second compound 0.0949 µM, first compound 0.00949 µM): 0.8%
viability, T/C (second compound 0.0949 µM, first compound 0.03 µM): 0.54%
viability, T/C (second compound 0.0949 µM, first compound 0.0949 µM): 0.7%
viability, T/C (second compound 0.0949 µM, first compound 0.3 µM): 0.4%
viability, T/C (second compound 0.3 µM, first compound 0.000949 µM): 62.1%
viability, T/C (second compound 0.3 µM, first compound 0.003 µM): 4.76%
viability, T/C (second compound 0.3 µM, first compound 0.00949 µM): 0.65%
viability, T/C (second compound 0.3 µM, first compound 0.03 µM): 0.58%
viability, T/C (second compound 0.3 µM, first compound 0.0949 µM): 0.62%
viability, T/C (second compound 0.3 µM, first compound 0.3 µM): 0.39%
